Oligonucleotides are given in HELM: sugar(base)linkage, 5' to 3'; d 2'-deoxyribose, r ribose, m 2'-O-methylribose, p phosphate. ss, as = sense and antisense strand
What follows are substances tested against UBE2N (assay: reporter assay of Huesken 2005). Settings: siRNA.
For “RNA1{r(A)p.r(G)p.r(A)p.r(U)p.r(A)p.r(U)p.r(U)p.r(U)p.r(U)p.r(G)p.r(A)p.r(A)p.r(A)p.r(G)p.r(A)p.r(U)p.r(A)p.r(A)p.r(G)p.d(T)p.d(T)}|RNA2{r(C)p.r(U)p.r(U)p.r(A)p.r(U)p.r(C)p.r(U)p.r(U)p.r(U)p.r(C)p.r(A)p.r(A)p.r(A)p.r(A)p.r(U)p.r(A)p.r(U)p.r(C)p.r(U)p.d(A)p.d(G)}$$$RNA1{StrandType:ss}|RNA2{StrandType:as}$”, the normalised inhibition (eCFP-eYFP dual reporter) was 57.1%.
Work on “RNA1{r(A)p.r(G)p.r(C)p.r(C)p.r(C)p.r(A)p.r(A)p.r(G)p.r(C)p.r(C)p.r(A)p.r(U)p.r(A)p.r(G)p.r(A)p.r(A)p.r(A)p.r(C)p.r(A)p.d(T)p.d(T)}|RNA2{r(U)p.r(G)p.r(U)p.r(U)p.r(U)p.r(C)p.r(U)p.r(A)p.r(U)p.r(G)p.r(G)p.r(C)p.r(U)p.r(U)p.r(G)p.r(G)p.r(G)p.r(C)p.r(U)p.d(T)p.d(C)}$$$RNA1{StrandType:ss}|RNA2{StrandType:as}$” yielded a normalised inhibition (eCFP-eYFP dual reporter) of 91.7%.
Work on “RNA1{r(A)p.r(G)p.r(C)p.r(G)p.r(G)p.r(A)p.r(G)p.r(C)p.r(A)p.r(G)p.r(U)p.r(G)p.r(G)p.r(A)p.r(A)p.r(G)p.r(A)p.r(C)p.r(C)p.d(T)p.d(T)}|RNA2{r(G)p.r(G)p.r(U)p.r(C)p.r(U)p.r(U)p.r(C)p.r(C)p.r(A)p.r(C)p.r(U)p.r(G)p.r(C)p.r(U)p.r(C)p.r(C)p.r(G)p.r(C)p.r(U)p.d(A)p.d(C)}$$$RNA1{StrandType:ss}|RNA2{StrandType:as}$” yielded a normalised inhibition (eCFP-eYFP dual reporter) of 43.9%.
“RNA1{r(A)p.r(U)p.r(A)p.r(G)p.r(A)p.r(A)p.r(A)p.r(C)p.r(A)p.r(G)p.r(C)p.r(U)p.r(A)p.r(G)p.r(A)p.r(G)p.r(C)p.r(A)p.r(U)p.d(T)p.d(T)}|RNA2{r(A)p.r(U)p.r(G)p.r(C)p.r(U)p.r(C)p.r(U)p.r(A)p.r(G)p.r(C)p.r(U)p.r(G)p.r(U)p.r(U)p.r(U)p.r(C)p.r(U)p.r(A)p.r(U)p.d(G)p.d(G)}$$$RNA1{StrandType:ss}|RNA2{StrandType:as}$” was tested, and the normalised inhibition (eCFP-eYFP dual reporter) was 91.8%.
For “RNA1{r(A)p.r(U)p.r(C)p.r(A)p.r(U)p.r(C)p.r(C)p.r(U)p.r(A)p.r(A)p.r(U)p.r(G)p.r(U)p.r(A)p.r(G)p.r(A)p.r(C)p.r(A)p.r(A)p.d(T)p.d(T)}|RNA2{r(U)p.r(U)p.r(G)p.r(U)p.r(C)p.r(U)p.r(A)p.r(C)p.r(A)p.r(U)p.r(U)p.r(A)p.r(G)p.r(G)p.r(A)p.r(U)p.r(G)p.r(A)p.r(U)p.d(A)p.d(A)}$$$RNA1{StrandType:ss}|RNA2{StrandType:as}$”, the normalised inhibition (eCFP-eYFP dual reporter) was 46.4%.
Substance “RNA1{r(A)p.r(U)p.r(C)p.r(C)p.r(G)p.r(C)p.r(A)p.r(C)p.r(A)p.r(G)p.r(U)p.r(U)p.r(C)p.r(U)p.r(G)p.r(C)p.r(U)p.r(A)p.r(U)p.d(T)p.d(T)}|RNA2{r(A)p.r(U)p.r(A)p.r(G)p.r(C)p.r(A)p.r(G)p.r(A)p.r(A)p.r(C)p.r(U)p.r(G)p.r(U)p.r(G)p.r(C)p.r(G)p.r(G)p.r(A)p.r(U)p.d(C)p.d(T)}$$$RNA1{StrandType:ss}|RNA2{StrandType:as}$” has a normalised inhibition (eCFP-eYFP dual reporter) of 54.2%.
Work on “RNA1{r(A)p.r(U)p.r(G)p.r(U)p.r(C)p.r(U)p.r(A)p.r(G)p.r(A)p.r(U)p.r(A)p.r(U)p.r(U)p.r(U)p.r(U)p.r(G)p.r(A)p.r(A)p.r(A)p.d(T)p.d(T)}|RNA2{r(U)p.r(U)p.r(U)p.r(C)p.r(A)p.r(A)p.r(A)p.r(A)p.r(U)p.r(A)p.r(U)p.r(C)p.r(U)p.r(A)p.r(G)p.r(A)p.r(C)p.r(A)p.r(U)p.d(A)p.d(T)}$$$RNA1{StrandType:ss}|RNA2{StrandType:as}$” yielded a normalised inhibition (eCFP-eYFP dual reporter) of 75.9%.
With “RNA1{r(A)p.r(U)p.r(G)p.r(U)p.r(G)p.r(G)p.r(U)p.r(C)p.r(A)p.r(U)p.r(U)p.r(G)p.r(C)p.r(U)p.r(G)p.r(G)p.r(C)p.r(C)p.r(C)p.d(T)p.d(T)}|RNA2{r(G)p.r(G)p.r(G)p.r(C)p.r(C)p.r(A)p.r(G)p.r(C)p.r(A)p.r(A)p.r(U)p.r(G)p.r(A)p.r(C)p.r(C)p.r(A)p.r(C)p.r(A)p.r(U)p.d(G)p.d(A)}$$$RNA1{StrandType:ss}|RNA2{StrandType:as}$” the normalised inhibition (eCFP-eYFP dual reporter) was 47.1%.
“RNA1{r(A)p.r(U)p.r(U)p.r(A)p.r(G)p.r(C)p.r(A)p.r(A)p.r(A)p.r(U)p.r(G)p.r(A)p.r(U)p.r(G)p.r(U)p.r(A)p.r(G)p.r(C)p.r(G)p.d(T)p.d(T)}|RNA2{r(C)p.r(G)p.r(C)p.r(U)p.r(A)p.r(C)p.r(A)p.r(U)p.r(C)p.r(A)p.r(U)p.r(U)p.r(U)p.r(G)p.r(C)p.r(U)p.r(A)p.r(A)p.r(U)p.d(G)p.d(G)}$$$RNA1{StrandType:ss}|RNA2{StrandType:as}$” was tested, and the normalised inhibition (eCFP-eYFP dual reporter) was 34.2%.
“RNA1{r(A)p.r(U)p.r(U)p.r(U)p.r(A)p.r(U)p.r(C)p.r(A)p.r(U)p.r(C)p.r(C)p.r(U)p.r(A)p.r(A)p.r(U)p.r(G)p.r(U)p.r(A)p.r(G)p.d(T)p.d(T)}|RNA2{r(C)p.r(U)p.r(A)p.r(C)p.r(A)p.r(U)p.r(U)p.r(A)p.r(G)p.r(G)p.r(A)p.r(U)p.r(G)p.r(A)p.r(U)p.r(A)p.r(A)p.r(A)p.r(U)p.d(T)p.d(T)}$$$RNA1{StrandType:ss}|RNA2{StrandType:as}$” was tested, and the normalised inhibition (eCFP-eYFP dual reporter) was 49.2%.
With “RNA1{r(A)p.r(U)p.r(U)p.r(U)p.r(U)p.r(C)p.r(A)p.r(U)p.r(G)p.r(U)p.r(G)p.r(G)p.r(U)p.r(C)p.r(A)p.r(U)p.r(U)p.r(G)p.r(C)p.d(T)p.d(T)}|RNA2{r(G)p.r(C)p.r(A)p.r(A)p.r(U)p.r(G)p.r(A)p.r(C)p.r(C)p.r(A)p.r(C)p.r(A)p.r(U)p.r(G)p.r(A)p.r(A)p.r(A)p.r(A)p.r(U)p.d(A)p.d(A)}$$$RNA1{StrandType:ss}|RNA2{StrandType:as}$” the normalised inhibition (eCFP-eYFP dual reporter) was 47.1%.
With “RNA1{r(C)p.r(A)p.r(A)p.r(A)p.r(U)p.r(G)p.r(A)p.r(U)p.r(G)p.r(U)p.r(A)p.r(G)p.r(C)p.r(G)p.r(G)p.r(A)p.r(G)p.r(C)p.r(A)p.d(T)p.d(T)}|RNA2{r(U)p.r(G)p.r(C)p.r(U)p.r(C)p.r(C)p.r(G)p.r(C)p.r(U)p.r(A)p.r(C)p.r(A)p.r(U)p.r(C)p.r(A)p.r(U)p.r(U)p.r(U)p.r(G)p.d(C)p.d(T)}$$$RNA1{StrandType:ss}|RNA2{StrandType:as}$” the normalised inhibition (eCFP-eYFP dual reporter) was 64.2%.
With “RNA1{r(C)p.r(A)p.r(A)p.r(C)p.r(G)p.r(A)p.r(A)p.r(G)p.r(C)p.r(C)p.r(C)p.r(A)p.r(A)p.r(G)p.r(C)p.r(C)p.r(A)p.r(U)p.r(A)p.d(T)p.d(T)}|RNA2{r(U)p.r(A)p.r(U)p.r(G)p.r(G)p.r(C)p.r(U)p.r(U)p.r(G)p.r(G)p.r(G)p.r(C)p.r(U)p.r(U)p.r(C)p.r(G)p.r(U)p.r(U)p.r(G)p.d(G)p.d(T)}$$$RNA1{StrandType:ss}|RNA2{StrandType:as}$” the normalised inhibition (eCFP-eYFP dual reporter) was 94%.
“RNA1{r(C)p.r(A)p.r(A)p.r(C)p.r(G)p.r(C)p.r(C)p.r(C)p.r(G)p.r(U)p.r(U)p.r(A)p.r(U)p.r(U)p.r(U)p.r(U)p.r(C)p.r(A)p.r(U)p.d(T)p.d(T)}|RNA2{r(A)p.r(U)p.r(G)p.r(A)p.r(A)p.r(A)p.r(A)p.r(U)p.r(A)p.r(A)p.r(C)p.r(G)p.r(G)p.r(G)p.r(C)p.r(G)p.r(U)p.r(U)p.r(G)p.d(C)p.d(T)}$$$RNA1{StrandType:ss}|RNA2{StrandType:as}$” showed a normalised inhibition (eCFP-eYFP dual reporter) of 87.1%.
“RNA1{r(C)p.r(A)p.r(G)p.r(U)p.r(G)p.r(G)p.r(A)p.r(A)p.r(G)p.r(A)p.r(C)p.r(C)p.r(A)p.r(A)p.r(C)p.r(G)p.r(A)p.r(A)p.r(G)p.d(T)p.d(T)}|RNA2{r(C)p.r(U)p.r(U)p.r(C)p.r(G)p.r(U)p.r(U)p.r(G)p.r(G)p.r(U)p.r(C)p.r(U)p.r(U)p.r(C)p.r(C)p.r(A)p.r(C)p.r(U)p.r(G)p.d(C)p.d(T)}$$$RNA1{StrandType:ss}|RNA2{StrandType:as}$” showed a normalised inhibition (eCFP-eYFP dual reporter) of 78%.
“RNA1{r(C)p.r(A)p.r(G)p.r(U)p.r(U)p.r(C)p.r(C)p.r(U)p.r(G)p.r(G)p.r(C)p.r(A)p.r(U)p.r(C)p.r(A)p.r(A)p.r(A)p.r(G)p.r(C)p.d(T)p.d(T)}|RNA2{r(G)p.r(C)p.r(U)p.r(U)p.r(U)p.r(G)p.r(A)p.r(U)p.r(G)p.r(C)p.r(C)p.r(A)p.r(G)p.r(G)p.r(A)p.r(A)p.r(C)p.r(U)p.r(G)p.d(G)p.d(T)}$$$RNA1{StrandType:ss}|RNA2{StrandType:as}$” showed a normalised inhibition (eCFP-eYFP dual reporter) of 61.4%.
“RNA1{r(C)p.r(A)p.r(U)p.r(A)p.r(G)p.r(A)p.r(A)p.r(A)p.r(C)p.r(A)p.r(G)p.r(C)p.r(U)p.r(A)p.r(G)p.r(A)p.r(G)p.r(C)p.r(A)p.d(T)p.d(T)}|RNA2{r(U)p.r(G)p.r(C)p.r(U)p.r(C)p.r(U)p.r(A)p.r(G)p.r(C)p.r(U)p.r(G)p.r(U)p.r(U)p.r(U)p.r(C)p.r(U)p.r(A)p.r(U)p.r(G)p.d(G)p.d(C)}$$$RNA1{StrandType:ss}|RNA2{StrandType:as}$” showed a normalised inhibition (eCFP-eYFP dual reporter) of 95.3%.
With “RNA1{r(C)p.r(A)p.r(U)p.r(C)p.r(A)p.r(A)p.r(A)p.r(G)p.r(C)p.r(C)p.r(G)p.r(A)p.r(A)p.r(C)p.r(C)p.r(A)p.r(G)p.r(A)p.r(U)p.d(T)p.d(T)}|RNA2{r(A)p.r(U)p.r(C)p.r(U)p.r(G)p.r(G)p.r(U)p.r(U)p.r(C)p.r(G)p.r(G)p.r(C)p.r(U)p.r(U)p.r(U)p.r(G)p.r(A)p.r(U)p.r(G)p.d(C)p.d(C)}$$$RNA1{StrandType:ss}|RNA2{StrandType:as}$” the normalised inhibition (eCFP-eYFP dual reporter) was 84.7%.
“RNA1{r(C)p.r(A)p.r(U)p.r(U)p.r(A)p.r(G)p.r(C)p.r(A)p.r(A)p.r(A)p.r(U)p.r(G)p.r(A)p.r(U)p.r(G)p.r(U)p.r(A)p.r(G)p.r(C)p.d(T)p.d(T)}|RNA2{r(G)p.r(C)p.r(U)p.r(A)p.r(C)p.r(A)p.r(U)p.r(C)p.r(A)p.r(U)p.r(U)p.r(U)p.r(G)p.r(C)p.r(U)p.r(A)p.r(A)p.r(U)p.r(G)p.d(G)p.d(A)}$$$RNA1{StrandType:ss}|RNA2{StrandType:as}$” gave a normalised inhibition (eCFP-eYFP dual reporter) of 30.2%.
With “RNA1{r(C)p.r(C)p.r(A)p.r(G)p.r(A)p.r(U)p.r(G)p.r(A)p.r(G)p.r(A)p.r(G)p.r(C)p.r(A)p.r(A)p.r(C)p.r(G)p.r(C)p.r(C)p.r(C)p.d(T)p.d(T)}|RNA2{r(G)p.r(G)p.r(G)p.r(C)p.r(G)p.r(U)p.r(U)p.r(G)p.r(C)p.r(U)p.r(C)p.r(U)p.r(C)p.r(A)p.r(U)p.r(C)p.r(U)p.r(G)p.r(G)p.d(T)p.d(T)}$$$RNA1{StrandType:ss}|RNA2{StrandType:as}$” the normalised inhibition (eCFP-eYFP dual reporter) was 65.8%.
Note: test concentration or dose not given here.
